# Measurements taken from publication PMC9616048, “Thermal proteome profiling reveals Haemonchus orphan protein HCO_011565 as a target of the nematocidal small molecule UMW-868” (Frontiers in Pharmacology, 2022).
# What was measured:
# [1] = test system: H. contortus xL3 to L4 development; assay: High throughput screen, larval development and phenotype at 168 h; assay type: cell-based, Haemonchus contortus
# Experimental: Following the measurement of xL3 motility, plates were incubated again for 78 h (i.e., a total of 168 h) under the same conditions. Thereafter, 40 µl of 1% (v/v) iodine were added to individual wells, and worms examined using a light microscope (M80, Leica) at 60-times magnification to assess larval development, based on the presence/absence of a well-developed pharynx ([Sommerville, 1966]), and/or phenotypic alterations with respect to untreated xL3s.
# [2] = test system: eggs of H. contortus; assay: Egg hatch assay; assay type: cell-based; conditions: Haemonchus contortus, 48 h; read-out: Egg hatch inhibition (IC50 in µM)
# Experimental: Compounds were also assessed for their effect on the hatching of eggs of H. contortus in vitro. To do this, eggs were isolated from the faeces from sheep with patent (30 day-) H. contortus infection by sucrose flotation ([Mes et al., 2007]). Eggs were suspended in H2O at a concentration of one egg per µl. The eggs were dispensed into wells (in triplicate; 100 eggs per well) and incubated with two-fold serial dilutions (9 points from 50 μM to 0.2 µM in H2O) of individual test or control compounds for 48 h at 27°C and >90% relative humidity; wells with no compound were also included. The numbers (percentages) of eggs from which first-stage larvae (L1s) hatched were counted using a light microscope (M80, Leica) at a 40-times magnification. With reference to positive-control compounds (i.e., monepantel and moxidectin), IC50 values of compounds were calculated.
# [3] = test system: He. polygyrus in mice; assay: In vivo activity against He. polygyrus in mice
# Experimental: Candidate compound(s) were tested for their effect on other nematode species (He. polygyrus and A. ceylanicum) in infected rodents.
# For He. polygyrus, four NMRI mice (3 weeks old; female) were infected orally with 88 He. polygyrus L3s, and immunosuppressed with 0.25 mg/ml dexamethasone (Sigma-Aldrich), in the drinking water, until 2 days prior to treatment ([Mes et al., 2007]). For A. ceylanicum, four Syrian golden hamsters (3 weeks old; male) were infected orally with 300 L3s without immunosuppression ([Tritten et al., 2012]). […] Four each of untreated mice and hamsters served as placebo controls. Six to 7 days post-treatment with the compound, all animals were euthanised by CO2 (hamsters being initially narcotised using isoflurane), and the intestine was dissected. The live adult worms were collected and counted to calculate the worm burden reductions and worm expulsion rates. The worm burden reduction was calculated using the mean number of live worms for the treated group and establishing the differences, in a percentage, with reference to the untreated control group.
# [4] = test system: exsheathed third-stage larvae (xL3s) of H. contortus; assay: High throughput screen, xL3 motility (infrared light beam-interference); assay type: cell-based; conditions: Haemonchus contortus, 90 h, read-out: Motility reduction at 90 h (%)
# Experimental: An established platform was used for compound screening ([Taki et al., 2021a]). Using a semi-automated liquid handling robot (VIAFLO ASSIST PLUS, Integra Biosciences), compounds were individually diluted to […] in LB* containing 0.2% (v/v) DMSO and then dispensed in 20 µl into the wells of sterile 384-well flat bottom microtitre plates (cat. no. 3680; Corning); 320 compounds were arrayed on each plate, with 16 wells being negative controls (with LB* + 0.2% DMSO) and four wells containing each monepantel (Zolvix; Elanco), moxidectin (Cydectin; Virbac), monepantel + abamectin (Zolvix Plus; Elanco) and compound MIPS-0018666 (abbreviated here as M-666) ([Le et al., 2018]) as positive controls (20 µM). Following the dilution and dispensing of compounds into plates, 80 H. contortus xL3s in 20 μl of LB* were transferred to individual wells; after this step, the final concentrations were 20 µM of test- or positive-control compound, and 0.2% of DMSO. During dispensing, xL3s were maintained in a homogenous suspension using a constant stream of bubbles produced employing an aquarium pump (H2Pro). Plates containing H. contortus xL3s were incubated at 38 °C, 10% (v/v) CO2 and >90% relative humidity.
# After 90 h of incubation with compounds (20 μM), H. contortus xL3s motility was measured for 15 min in individual wells of each plate by infrared light beam-interference ([Simonetta and Golombek, 2007]) using a WMicroTracker ONE instrument (Phylumtech). Raw data captured were normalised against measurements obtained for the positive (monepantel) and negative (LB* + 0.2% DMSO) controls to remove plate-to-plate variation by calculating the percentage of motility using the program GraphPad Prism (v.9.1.2; GraphPad Software). A compound was considered active (“hit”) if it reduced larval motility by ≥ 70%. To continually assess the performance of the screening assay, the Z′-factor ([Zhang et al., 1999]) was calculated (using data for the DMSO and the M-666 controls) for individual plates (n = 43) and was consistently ≥0.7; reliable assays achieve a Z′-factor of between 0.5 and 1. The signal to background (S/B) ratio (for the same controls) ([Sui and Wu, 2007]) was consistently >200.
# [5] = test system: H. contortus xL3s; assay: Cell lethality in xL3s (Sytox Green staining); assay type: cell-based, Haemonchus contortus
# Experimental: Fluorescence staining was employed to assess the ability of UMW-868 to reduce the viability of H. contortus. The xL3s were dispensed in 96-well plates at a density of 300 xL3 per well, and incubated with compounds UMW-868 or A-3155, non-active analogs of UMW-868, at 50 μM at 38°C, 10% (v/v) CO2 and >90% relative humidity. After 90 h of incubation, H. contortus xL3s were stained with Sytox Green nucleic acid stain (Thermo Fisher Scientific) at the final concentration of 1 µM in LB* in the same 96-well plates and incubated for 1 h at 38°C and 10% (v/v) CO2 with >90% relative humidity. Following the incubation, the viability of larvae was evaluated by measuring the relative fluorescent units (RFU) of xL3s using an Omega FLUOstar microplate reader (BMG Labtech), with excitation and emission wavelengths set at 485 nm and 520 nm, respectively. The 96-well plates containing the stained larvae were returned to the incubator for further 78 h; after a total of 168 h of compound exposure, the stained larvae were examined under an inverted fluorescence microscope (DM IL, Leica) equipped with a green fluorescent protein filter (470/500/525 […]; Leica), and imaged using Leica Application Suite software (Leica).
# [6] = mouse, He. polygyrus, 200 mg/kg single oral dose
structure (smiles),measurement,setting,value
"CCCc1ccc(-c2nc(-c3cccs3)no2)cc1 [UMW-868, 5-(4-propylphenyl)-3-(2-thienyl)-1,2,4-oxadiazole]",Abnormal phenotype detected at 168 h,[1]; 20 µM,"Cur, Evi"
same,inhibition at 20 µM,"[1]; Haemonchus contortus, development to L4",80 to 99%
same,IC50,[2],6.2 µM
same,acute toxicity and pathological changes in treated animals,"[3]; mice, single oral dose, post-mortem examination",neither evidence of acute toxicity
same,Mean no. of worms (SD),[3]; [6],12.0 (3.5)
same,Reduction in infection intensity (%),[3]; [6],47%
same,inhibition at 20 µM,[4],78.4%
same,percentage of treated xL3s killed,"[5]; 50 μM, 90 h",100%
same,concentration at which cell death was detected in xL3s,[5]; 90 h of exposure,> 5 µM
same,dead cells detected microscopically in xL3s (Sytox Green),[5]; 168 h of exposure,dead cells could be seen throughout the larvae
same,IC50,"[5]; Haemonchus contortus, 90 h, read-out: IC50 (lethality, inducing cell death in xL3s)",34.8 µM
